Experimental data published in US8367721B2, “Methods of treating an overweight or obese subject” (Zafgen, Inc., priority 2008, dated 2013).

Assays:
[1] = system: diet-induced obese C57BL/6NTac mice; assay: 7 day oral weight loss study in diet-induced obese mice (Example 5); format: in vivo; conditions: oral 1.0 mg/kg once a day for 7 days
Method: A weight loss study was conducted in obese mice. The mice in this study were not genetically obese, but prior to and during the study, obesity was induced by a high-fat diet. Twelve week-old C57BL/6NTac mice, maintained on a 60% fat diet prior to and during the study, were separated into seven groups, eight animals per group. Average body weight of the mice was approximately 47 g at the start of the study.
Each of six groups was orally administered 1.0 mg/kg of a compound ([…] compounds B. C, D, E, F and G as disclosed herein), in 10% gelucire in deoinised water. Each of these six groups was administered a different compound. One group was orally administered fumagillin at 1.0 mg/kg (group 201) in 10% gelucire in deoinised water, and one group was administered 10% gelucire in deoinised water (vehicle). Mice received administrations once a day for 7 days.
(Data analyzed by ANCOVA with body weight on Day 1 as covariate followed by multiple tests against vehicle group: *p<0.05; **p<0.01, ***p<0.001.)

[2] = system: Thioredoxin-1 (TXN) in B16F10 cells; assay: N-terminal chymotryptic fragments of TXN by LC/MS in fumagillin-treated B16F10 cells; format: cell-based
Method: B16F10 cells were treated with increasing concentrations of fumagillin. N-terminal chymotryptic fragments of TXN were measured by liquid chromatography/mass spectrometry (LC/MS). […] The EC50 of fumagillin to increase Met-TXN acetylated Met-TXN levels is <10 nM.

[3] = system: TXN in Cos-1 and 293T cells; assay: FLAG-tagged TXN expression (gel) in transfected Cos-1 and 293T cells; format: cell-based
Method: EC50 of fumagillin to increase TXN levels is <10 nM.

[4] = system: C57BL/6 mice conditioned on a high fat diet; assay: Oral gavage for 10 days in high fat diet mice; format: in vivo; conditions: oral gavage 0.3 or 3 mg/kg daily for 10 days
Excerpt: (§1) Oral administration of the MetAP2 inhibitor fumagillin causes an increase in circulating ketone bodies, as measured by concentration of beta hydroxybutyrate, which indicates an increase in the breakdown of stored fat.

[5] = system: C57BL/6 mice conditioned on a high fat diet; assay: Diet admixture for 250 days in high fat diet mice; format: in vivo
Method: as §1
In addition to showing an increase in beta hydroxybutyrate concentration, C57BL/6 mice conditioned on a high fat diet and treated with fumagillin (ZGN-201) as a diet admixture (1 mg/kg daily for 250 days) also experienced a reduction in body fat by approximately 40 percent (FIG. 6). Once attaining the maximum weight reduction, mice treated daily with 1 mg/kg fumagillin maintained a weight that was 25% less than that of age-matched mice maintained on normal mouse chow diet (lean mice, FIG. 6) for the duration of the experiment.
Adipose tissue in mice fed a high-fat diet show distinctive crown-like structures not seen in lean mice. These crown-like structures were also absent from the adipose tissue of fumagillin-treated mice.

[6] = system: High fat diet-fed C57BL/6 mice; assay: 14 day body weight and food intake study in high fat diet-fed mice; format: in vivo
Method: High fat diet-fed C57BL/6 mice were treated with 1 mg/kg of the MetAP2 inhibitor fumagillin (ZGN-201, squares) or vehicle (diamonds) for 14 days (FIG. 10). Body weights (left panel) were determined daily, while food intake (right panel) was assessed every other day by measuring the food consumed by each cage of three mice over the two day period. Data shown in FIG. 10 are means±SEM, n=9 animals. […] First, during the initial two to three days of treatment, no overt changes in food intake or body weight are observed. During this time period key changes in MetAP2 substrates occur, including glyceraldehyde-3-phosphate dehydrogenase and thioredoxin (data not shown). Second, the animals enter a period of rapid weight loss that proceeds until essentially all excess fat deposits are consumed. During this second period, fat oxidation is enhanced and food intake is inhibited.
Weight loss following treatment with therapeutically relevant doses of MetAP2 inhibitors stops once animals attain a normal body composition. […] This third phase can be maintained indefinitely provided the drug is continued (see FIG. 10), or presumably can be maintained in practice through other complementary pharmacologic, dietary, or lifestyle interventions.

[7] = system: C57BL/6 mice conditioned on a high-fat diet; assay: 28 day oral gavage, fat and lean tissue change in high fat diet mice; format: in vivo; conditions: oral gavage 0.1 or 0.3 mg/kg for 28 days
Method: C57BL/6 mice were conditioned on a low-fat diet (LF), a high fat diet (HF), or a high-fat diet and treated with fumagillin (ZGN-201) administered by oral gavage at doses of 0.1 or 0.3 mg/kg for 28 days. […] To determine whether the weight loss resulted from loss of fat or loss of lean tissue, the percentage change in fat tissue and lean tissue was determined for LF mice, HF mice, HF mice treated with 0.1 mg/kg fumagillin, and HF mice treated with 0.3 mg/kg fumagillin.
Upon histological examination, the studies of treated obese mice show no effect on growth of new blood vessels in growing fat depots and no effect on blood vessel size or density when compared to animals in which weight loss has been induced by simple energy (food) restriction.

[8] = diet admixture 1 mg/kg daily for 250 days

For `CO[C@@H]1[C@H](OC(=O)N[C@@H](C(N)=O)C(C)C)CC[C@]2(CO2)[C@H]1[C@@]1(C)O[C@@H]1CC=C(C)C` [B], the “body weight change over the course of the 8 days” value (shortened to “body weight change”) [1] was “lost weight”.
`CO[C@@H]1[C@H](OC(=O)NCCC2CCCN2C)CC[C@]2(CO2)[C@H]1[C@@]1(C)O[C@@H]1CC=C(C)C` (stereo partly drawn) [C] was tested, and the “body weight change” value [1] was “lost weight”.
For `CO[C@@H]1[C@H](OC(=O)N[C@@H](C(=O)NCCN2CCCC2)C(C)C)CC[C@]2(CO2)[C@H]1[C@@]1(C)O[C@@H]1CC=C(C)C` [E], the “body weight change” value [1] was “lost weight”.
With `CO[C@@H]1[C@H](OC(=O)/C=C/C=C/C=C/C=C/C(=O)O)CC[C@]2(CO2)[C@H]1[C@@]1(C)O[C@@H]1CC=C(C)C` [fumagillin] the “accumulation of N-acetyl TXN(1-4)” value ([2]; LC/MS) was “significant accumulation”, the “cellular level of TXN containing an intact N-terminal methionine [TXN(1-4)]” value ([2]; LC/MS) was “significantly increased” and the EC50 ([2]; Mus musculus, B16-F10, read-out: EC50 to increase Met-TXN acetylated Met-TXN levels) was under 0.01 µM. For the same compound, the “expression of TXN” value ([3]; Cos-1 and 293T cells transfected with FLAG-tagged TXN) was “significantly increased”, the EC50 ([3]; gel, FIG. 4, read-out: EC50 to increase TXN levels) was under 0.01 µM and the beta hydroxybutyrate concentrations [4] was “increase”. For the same compound, the “free fatty acid concentration” value [4] was “without an increase”, the “maintained weight less than that of age-matched lean mice on normal chow” value ([5]; 1 mg/kg daily, after maximum weight reduction) was 25% and the adipocyte size ([5]; 1 mg/kg, 250 days) was “more similar to that of age-matched lean mice”. The “crown-like structures in adipose tissue” value ([5]; 1 mg/kg, 250 days) was “absent”, the “fasted glucose and insulin levels, insulin-glucose product” value ([5]; 1 mg/kg, 250 days) was “more similar to that of age-matched lean mice” and the “retroperitoneal fat pad weight” value ([5]; 1 mg/kg, 250 days) was “more similar to that of age-matched lean mice”. For the same compound, the “size and appearance of epididymal fat, peri-renal fat and liver” value ([5]; 1 mg/kg, 250 days) was “more similar to that of age-matched lean mice”, the “hydroxybutyrate concentration at longer time points” value [5, 8] was “Increased hydroxybutyrate concentration persisted” and the “reduction in body fat” value [5, 8] was “approximately 40%”. For the same compound, the “food intake during period of rapid weight loss” value ([6]; 1 mg/kg for 14 days, second phase) was “inhibited”, the “food intake after weight loss nadir” value ([6]; 1 mg/kg, third phase) was “returns to normal levels” and the body weight [7] was “reduction in body weight down to the level of low fat fed mice”. The reduction in fat [7] was 40-50%, the “reduction in lean tissue” value [7] was 5-10% and the “body weight change” value [1] was “lost the most weight”.
